The test system of experiment [1] is STZ-HFD-induced T2D Wistar rats. Kind of experiment: Acute evaluation of blood glucose in STZ-HFD-induced T2D model. Format: in vivo, rat. Conditions: 8d 32 mg/Kg oral. The protocol:
(§1) In vivo experiments were conducted in an acute and a subchronic model, where Wistar rats (180–220 g) were used. The study covered a total period of 10 weeks and was carried out under the Mexican Standard, and the “Guide for the Care and Use of Laboratory Animals” of the National Research Council and Health Institutes was followed.
(§2) At first, animals were housed in polypropylene cages under conditions of controlled temperature (20–25 °C), relative humidity (36–60%), and light/dark cycles, with water ad libitum. Before starting the experiment, they were given a one-week acclimatization period to adapt to their new habitat. Once finalized, animals were fed an HFD for 3 weeks to generate insulin resistance.
After this period, the animals fasted for 12 h and then were administered intraperitoneally with a single dose of 35 mg/Kg of STZ dissolved in a buffer of 0.1 M citrate, pH 4.5 (prepared on the same day of administration). […]
One week after administration, postprandial blood glucose levels were measured by venipuncture using a glucometer. […]
Once the experimental groups were formed, a fixed schedule was established for the daily oral administration of the respective treatments. […] On the third day of treatment, postprandial blood glucose was measured with a glucometer Freestyle® (Abbott Diabetes Care, Alameda, CA, USA), extracting a drop of blood from the caudal vein of each rat. […]

The next experiment concerns the target T1, ALR2 enzyme (Homo sapiens, UniProt P15121).
T1 construct: purchased ab273276
Kind of experiment: ALR2 activity assay kit (ab273276), inhibition.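 As to relative ALR2 inhibition: inhibition calculated from the rate of NADPH cofactor consumption.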 Type of experiment: biochemical. As for the experimental part: The obtained dose–response curve had concentrations of 10 μM, 5 μM, 500 nM, 50 nM, and 5 nM.

Experiment [2] concerns STZ-HFD-induced T2D Wistar rats. Briefly: Subchronic evaluation in STZ-HFD-induced T2D model. Format: in vivo, rat. Also on record: HbA1c: unit not given here. As for the experimental part:
as §1, §2
After this period, the animals fasted for 12 h and then were administered intraperitoneally with a single dose of 35 mg/Kg of STZ dissolved in a buffer of 0.1 M citrate, pH 4.5 (prepared on the same day of administration). Once administered, the hypercaloric diet was maintained, and 10% sucrose solution was placed on demand for 2 days.
One week after administration, postprandial blood glucose levels were measured by venipuncture using a glucometer. Those animals that maintained a glucose level between 200 and 400 mg/dL were included in the study.
Treatments were administered daily as described above, adjusting the dose according to the weight of the individuals. Fasting glucose levels (6 h fast) were monitored every 7 days until the end of treatments at week 10 (Figure 14). Halfway through the last week of treatment, the OGTT was performed, administering a dose of 1.5 g/Kg of glucose orally and subsequently monitoring capillary blood glucose at 0, 15, 30, 60, 90, and 120 min [62]. In addition, a 24-element blood chemistry was measured in a Celercare V automated dry chemistry analyzer (Tianjin MNCHIP Technologies Co., Ltd., Tianjin, China) at the beginning and end of the model. For this purpose, the blood samples were obtained from the tail of the rat.
At the end of the study, animals fasted for 12 h and were taken to a humane endpoint, where blood samples were obtained. These were kept at room temperature for 30 min and then centrifuged at 4000 RPM for 15 min at 4 °C. Finally, the serum was used to perform 24-element blood chemistry and quantify Trolox-equivalent TAC [86], TNF-α [87], and IL-6 levels using commercial kits from Merck (Darmstadt, Germany), Sigma-Aldrich (St. Louis, MO, USA), Cat. No. MAK334-1KT, RAB0479-1KT, and RAB0311-1KT, respectively. In addition, insulin was quantified using the Rat Ins1/Insulin ELISA Kit, from Sigma-Aldrich, No. Cat. RAB0904-1KT [89] to determine the HOMA-IR index. All kits were performed according to the manufacturer’s instructions without modifications.

Setting [3] is: after the induction of T2D, before treatment.

As to `COC(=O)[C@H](Cc1ccccc1)N/C(=N\c1nc2ccccc2s1)SC` [8d, Methyl (E)-((benzo[d]thiazol-2-ylimino)(methylthio)methyl)-L-phenylalaninate], the “blood glucose after a single administration, without prior fasting” value in experiment [1] is reported as ~ 200 mg/dL. Besides, the “concentrations at which ALR2 was inhibited” value at ALR2 enzyme was “below 10 µM”. Also, on ALR2 enzyme (10 μM to 5 nM), the “concentration dependence of ALR2 inhibition (IC50 not calculable)” value is given as “did not show a concentration-dependent response”. In addition, the “relative ALR2 inhibition” value stood at 93.590% on ALR2 enzyme (Inhibitor concentration 5 nm); 91.644% on ALR2 enzyme (Inhibitor concentration 50 nm); 86.494% on ALR2 enzyme (Inhibitor concentration 500 nm); 80.389% on ALR2 enzyme (Inhibitor concentration 5000 nm); 89.966% at ALR2 enzyme (Inhibitor concentration 10000 nm). The HOMA-IR was found to be 1.66 ± 0.611 in experiment [2] (After 5 weeks of treatment); 1.66 ± 0.61 in experiment [2] (Final (end of 5 weeks treatment), PGZ 30 mg/Kg, 8d 32 mg/Kg, mean ± SEM, n = 4); 4.22 ± 1.58 in experiment [2] (Initial (beginning of treatment), PGZ 30 mg/Kg, 8d 32 mg/Kg, mean ± SEM, n = 4); 4.22 ± 1.577 in experiment [2] (setting [3]). Besides, the R-QUICKI is listed as 0.376 ± 0.031 in experiment [2] (After 5 weeks of treatment) and 0.318 ± 0.013 in experiment [2] (setting [3]). In addition, the HbA1c is 9.267 ± 0.802 in experiment [2] (After 5 weeks of treatment, mean ± SEM, n = 4) and 8.633 ± 0.536 in experiment [2] (after the induction of T2D, before treatment, mean ± SEM, n = 4). Moreover, the “adipogenic effect at necropsy” value in experiment [2] (after treatment) is on record as “clear adipogenic effect”. In experiment [2] (daily oral treatment), the “polydipsia (water consumption)” value is recorded as “decreasing the polydipsia after the first week of treatment”. Further, the “fasting blood glucose, subchronic” value in experiment [2] (daily oral, 5 weeks) is reported as “lower blood glucose levels close to the normoglycemia of the healthy group”. The “redistribution of adipose tissue from visceral to subcutaneous fat” value in experiment [2] (necropsy) is “barely perceptible”.
